In US12370263B2, “Cyclic dinucleotide derivative based antibody-drug conjugates” (DAIICHI SANKYO COMPANY, LIMITED, priority 2018, dated 2025):

What was measured:
CT26.WT cells = assay: Anti-Tumor Test (1), intratumoral administration; assay type: in vivo, BALB/c mouse; settings: 10 μg intratumorally on Day 7, 9, and 11; CT26.WT in BALB/c mice; FIGS. 7a and 7b
Protocol: Mice: Before use for experiment, 5-week-old female BALB/c mice (BALB/cAnNCrlCrlj) (Charles River Laboratories Japan, Inc.) were habituated under SPF conditions for 4 days or longer.
Measurement, calculation formula: In all the studies, the major axis and minor axis of a tumor were measured twice or three times per week by using an electronic digital caliper (CD15-CX, Mitutoyo Corporation) to calculate tumor volume (mm^3). The calculation formula is as follows. Tumor volume (mm^3)=0.5×Major axis (mm)×[Minor axis (mm)]^2
Each test compound was diluted with physiological saline (Otsuka Pharmaceutical Factory, Inc.) for use. In administration of it, 50 μL was intratumorally administered.
Cells of the mouse colorectal cancer cell line CT26.WT (CRL2638) purchased from the American Type Culture Collection were used. CT26.WT cells were suspended in physiological saline, 1.0×10^6 cells were subcutaneously transplanted into the right axilla of each BALB/c mouse (Day 0), and 7 days thereafter the mice were randomly grouped. Each test compound in a dose of 10 μg was intratumorally administered on Day 7, 9, and 11, three times in total. A group with administration of physiological saline was set as a group with a vehicle. The number of mice in each group was five or six.

Human STING = Human STING (Homo sapiens, UniProt Q86WV6, G230A/H232R/R293Q/R71H); assay: Reporter gene assay, human STING agonist activity, THP1-Dual cells (HAQ-mutated), IRF pathway; settings: THP1-Dual cells IRF EC50, THP1-Dual cells (HAQ-mutated), 24 hours; 100% = maximum count with ML-RR-CDA·2Na+
Protocol: Human STING agonist activity was evaluated by using THP1-Dual™ cells (HAQ-mutated) (InvivoGen, CA, US), with which the activation of the pathway of interferon regulatory factor-3 (IRF3), which is present in the downstream of the STING pathway, can be confirmed.
Assay was performed as follows. First, a test compound diluted with PBS was aliquoted into a transparent 96-well plate (Corning Incorporated, NY, US) at 20 μL/well. Subsequently, reporter cells suspended in assay buffer (an RPMI1640 medium or DMEM medium containing 10% bovine serum albumin) were added at 180 μL/well (1×10^5 cells/well) to initiate stimulation. After the cells were cultured in an environment at 37° C. and 5% CO2 for 24 hours, the resultant was centrifuged to collect the supernatant. To a white 384-well plate, 6 μL of the supernatant collected was added, and 15 μL of QUANTI-Luc (InvivoGen) solution was added thereto. After the resultant was well mixed together, emission was measured by using a plate reader (PerkinElmer, Inc., MA, US).

[1] = molecular target: T1, HisAviTEV-hSTING (139-342) human AQ-mutated protein (Homo sapiens, UniProt Q86WV6, G230A/H232R/R293Q); assay: Protein thermal shift assay, STING C-terminal binding domain protein; settings: test compound final concentration 0.5 mM
T1 construct: made in house; host or cells: E. coli Rosetta 2 (DE3), co-expressed with BirA (1-321)

[2] = molecular target: T2, HisAviTEV-hSTING (139-342) human REF-mutated protein (Homo sapiens, UniProt Q86WV6); assay: as above; settings: test compound final concentration 0.5 mM
T2 construct: made in house; host or cells: E. coli Rosetta 2 (DE3), co-expressed with BirA (1-321)

[3] = molecular target: T3, His-Avi-TEV-mSTING (138-341) mouse wild-type protein (Mus musculus, UniProt Q3TBT3); assay: as above; settings: test compound final concentration 0.5 mM
T3 construct: made in house; host or cells: E. coli Rosetta 2 (DE3), co-expressed with BirA (1-321)
Protocol: Each of these expression strains was added to a TB medium containing 100 μg/mL ampicillin, 50 μg/mL streptomycin, and 30 μg/mL kanamycin, cultured at 37° C., then exposed to 100 μM IPTG for inducible expression, and further cultured at 16° C.
The culture solution was centrifuged, and the resulting bacterial cells were suspended in 50 mM HEPES pH 8.0, 500 mM NaCl, 20 mM imidazole, 1 mM DTT, 5% (w/v) glycerol, Complete EDTA free, and then subjected to freeze-thawing. After addition of Lysozyme and DNase I, proteins were extracted by ultrasonic disintegration, and centrifugation was performed and the resulting supernatant was collected. The supernatant obtained was purified by using an AKTA express chromatography system (GE Healthcare, IL, US) with a HisTrap FF column (GE Healthcare), and eluted with buffer (20 mM HEPES pH 7.5, 120 mM NaCl, 20% Glycerol, 0.8 mM DTT) through a Superdex 200 16/60 column (GE Healthcare). […] The protein concentrations were measured by using a NanoDrop2000 (Thermo Fisher Scientific, MA, US), and the proteins were cryopreserved at −80° C. until use.
The binding ability of each compound to the STING C-terminal binding domain proteins was evaluated by protein thermal shift assay, which uses the elevation of thermal denaturation temperature of protein as an index.
Specifically, 3 μL of a test compound (final concentration: 0.5 mM), 3 μL of SYPRO Orange Protein Gel Stain (Thermo Fisher Scientific) (final concentration: 20-fold), and 6 μL of a STING protein were mixed with use of assay buffer (20 mM Tris-HCl pH 7.5, 120 mM NaCl) in a 384-well real-time PCR plate, and mixed together with a plate shaker. With a real-time PCR system (Thermo Fisher Scientific), the temperature was increased from 25° C. to 95° C. at a rate of 0.03° C./sec, and the thermal denaturation temperature of the protein was measured by using fluorescence emitted from SYPRO Orange as an index. From the measurement acquired, Tm (the midpoint of the unfolding transition) (° C.) was determined as a temperature at which the increase rate of fluorescence intensity was maximized by using the analysis software Protein Thermal Shift software (Thermo Fisher Scientific). The Tm value for a well with no compound was subtracted from the Tm value for each test compound to calculate the Tm shift caused by the compound as ΔTm (° C.).

[4] = molecular target: T4, HisAviTEV-hSTING (139-342) human wild-type protein (Homo sapiens, UniProt Q86WV6, H232R); assay: as above; settings: test compound final concentration 0.5 mM
T4 construct: made in house; host or cells: E. coli Rosetta 2 (DE3), co-expressed with BirA (1-321)
T4 sequence (Q86WV6 with tags, fused parts or gaps H232R): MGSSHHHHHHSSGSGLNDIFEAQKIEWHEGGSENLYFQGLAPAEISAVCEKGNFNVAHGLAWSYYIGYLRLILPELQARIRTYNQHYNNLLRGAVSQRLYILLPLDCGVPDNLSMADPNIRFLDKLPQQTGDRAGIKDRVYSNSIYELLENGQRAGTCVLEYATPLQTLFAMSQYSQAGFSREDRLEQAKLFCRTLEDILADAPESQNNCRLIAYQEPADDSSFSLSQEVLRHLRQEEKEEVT

T1 sequence (Q86WV6 with tags, fused parts or gaps G230A/H232R/R293Q): as the sequence (Q86WV6 with tags, fused parts or gaps H232R) above, with G131A, R194Q counted along it
Sequence of Human STING (Q86WV6 whole entry R71H/G230A/H232R/R293Q, the tested form may be a part): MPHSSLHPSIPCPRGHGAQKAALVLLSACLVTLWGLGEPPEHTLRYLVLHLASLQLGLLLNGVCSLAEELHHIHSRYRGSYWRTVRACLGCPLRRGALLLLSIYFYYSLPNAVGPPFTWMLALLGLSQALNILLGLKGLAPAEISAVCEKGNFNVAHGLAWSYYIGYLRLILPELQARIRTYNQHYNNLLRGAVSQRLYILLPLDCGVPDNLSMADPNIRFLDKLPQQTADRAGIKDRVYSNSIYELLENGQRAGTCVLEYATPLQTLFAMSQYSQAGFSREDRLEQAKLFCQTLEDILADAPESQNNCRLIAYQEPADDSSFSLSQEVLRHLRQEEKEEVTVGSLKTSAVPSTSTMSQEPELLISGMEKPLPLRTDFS
T3 sequence (Q3TBT3 with tags, fused parts or gaps limits assumed): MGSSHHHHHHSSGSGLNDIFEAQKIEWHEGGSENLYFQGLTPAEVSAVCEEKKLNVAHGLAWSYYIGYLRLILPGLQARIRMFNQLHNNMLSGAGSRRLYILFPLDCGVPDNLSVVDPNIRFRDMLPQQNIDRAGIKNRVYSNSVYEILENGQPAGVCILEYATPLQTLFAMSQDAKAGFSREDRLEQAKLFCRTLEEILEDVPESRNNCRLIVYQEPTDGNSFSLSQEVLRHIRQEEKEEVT
T2 sequence (Q86WV6 with tags, fused parts or gaps, change not shown): as the sequence (Q86WV6 with tags, fused parts or gaps H232R) above, with R133H counted along it

SMILES	tumor growth (tumor volume) (CT26.WT cells)	EC50 (Human STING) [µM]	ΔTm Hu-AQ [1] [°C]	ΔTm Hu-REF [2] [°C]	ΔTm Ms-WT [3] [°C]	ΔTm Hu-WT [4] [°C]	ΔTm at 500 µM [1] [°C]	ΔTm at 500 µM [2] [°C]	ΔTm at 500 µM [3] [°C]	ΔTm at 500 µM [4] [°C]
Nc1nc(NCCO)nc2c1ncn2[C@@H]1O[C@@H]2COP(=O)(S)O[C@H]3[C@@H](O)[C@H](n4cc5c6c(ncnc64)NCCC5)O[C@@H]3COP(=O)(S)O[C@@H]1[C@@H]2O (single isomer, unassigned) [9b]	significantly suppressed	2.4								
NCCNc1nc(N)c2ncn([C@@H]3O[C@@H]4COP(=O)(S)O[C@H]5[C@@H](F)[C@H](n6cc7c8c(ncnc86)NCCC7)O[C@@H]5COP(=O)(S)O[C@@H]3[C@@H]4O)c2n1 (single isomer, unassigned) [37b]		4.5	9.4	3.4	12.3	8.1				
O=c1c2ncn([C@@H]3O[C@@H]4COP(=O)(S)O[C@H]5[C@@H](O)[C@H](n6cc7c8c(ncnc86)NCCC7)O[C@@H]5COP(=O)(S)O[C@@H]3[C@@H]4F)c2ncn1CCO (single isomer, unassigned) [39a]		0.19					12.9	5.7	15	10.4
NCCNc1nc(N)c2ncn([C@@H]3O[C@@H]4COP(=O)(S)O[C@H]5[C@@H](O)[C@H](n6cc7c8c(ncnc86)NCCC7)O[C@@H]5COP(=O)(S)O[C@@H]3[C@@H]4F)c2n1 (single isomer, unassigned) [42a]		4.2					9	2.8	11.2	6.5
NCCNc1nc(N)c2ncn([C@@H]3O[C@@H]4COP(=O)(S)O[C@H]5[C@@H](O)[C@H](n6cc7c8c(ncnc86)NCCC7)O[C@@H]5COP(=O)(S)O[C@@H]3[C@@H]4F)c2n1 (single isomer, unassigned) [42b]		4.7	7.4	1.4	10.6	5.3				
O=c1c2ncn([C@@H]3O[C@@H]4COP(=O)(S)O[C@H]5[C@@H](F)[C@H](n6cc7c8c(ncnc86)NCCC7)O[C@@H]5COP(=O)(S)O[C@@H]3[C@@H]4F)c2ncn1CCO (single isomer, unassigned) [44a]		0.21					18.2	8.7	19.3	13.4
NCCNc1nc(N)c2ncn([C@@H]3O[C@@H]4COP(=O)(S)O[C@H]5[C@@H](F)[C@H](n6cc7c8c(ncnc86)NCCC7)O[C@@H]5COP(=O)(S)O[C@@H]3[C@@H]4F)c2n1 (single isomer, unassigned) [45a]		1.2					10.8	4.4	12.3	8.9
NCCNc1nc(N)c2ncn([C@@H]3O[C@@H]4COP(=O)(S)O[C@H]5[C@@H](F)[C@H](n6cc7c8c(ncnc86)NCCC7)O[C@@H]5COP(=O)(S)O[C@@H]3[C@@H]4F)c2n1 (single isomer, unassigned) [45b]		3.1	9.1	3.1	12.1	7.5				
O=c1c2ncn([C@@H]3O[C@@H]4COP(=O)(S)O[C@H]5[C@@H](F)[C@H](n6cc7c8c(ncnc86)SCCC7)O[C@@H]5COP(=O)(S)O[C@@H]3[C@@H]4O)c2ncn1CCO (single isomer, unassigned) [48a]		0.035					22.2	9.3	16	15.9
NCCn1cnc2c(ncn2[C@@H]2O[C@@H]3COP(=O)(S)O[C@H]4[C@@H](F)[C@H](n5cc6c7c(ncnc75)SCCC6)O[C@@H]4COP(=O)(S)O[C@@H]2[C@@H]3O)c1=O (single isomer, unassigned) [49b]		0.41					16.1	6.6	19.3	12.6
O=C(CO)NCCn1cnc2c(ncn2[C@@H]2O[C@@H]3COP(=O)(S)O[C@H]4[C@@H](F)[C@H](n5cc6c7c(ncnc75)SCCC6)O[C@@H]4COP(=O)(S)O[C@@H]2[C@@H]3O)c1=O (single isomer, unassigned) [50a]		0.34					15.6	6.5	13	12.3
NCCNc1nc(N)c2ncn([C@@H]3O[C@@H]4COP(=O)(S)O[C@H]5[C@@H](F)[C@H](n6cc7c8c(ncnc86)SCCC7)O[C@@H]5COP(=O)(S)O[C@@H]3[C@@H]4F)c2n1 (single isomer, unassigned) [51b]		0.43					11.6	4.3	17	9.9
O=c1c2ncn([C@@H]3O[C@@H]4COP(=O)(O)O[C@H]5[C@@H](F)[C@H](n6cc7c8c(ncnc86)NCCC7)O[C@@H]5COP(=O)(S)O[C@@H]3[C@@H]4O)c2ncn1CCO (single isomer, unassigned) [52a]		0.31					13.5	5.6	14.3	10.9
O=c1c2ncn([C@@H]3O[C@@H]4COP(=O)(S)O[C@H]5[C@@H](F)[C@H](n6cc7c8c(ncnc86)NCCC7)O[C@@H]5COP(=O)(O)O[C@@H]3[C@@H]4O)c2ncn1CCO (stereo partly drawn) [53a, Disodium (5R,7R,8R,12aR,14R,15R,15aR,16R)-15-fluoro-16-hydroxy-7-[1-(2-hydroxyethyl)-6-oxo-1,6-dihydro-9H-purin-9-yl]-2,10-dioxo-2-sulfide-14-(6,7,8,9-tetrahydro-2H-2,3,5,6-tetraazabenzo[cd]azulen-2-yl)octahydro-2H,10H,12H-5,8-methano-2λ^5,10λ^5-furo[3,2-1][1,3,6,9,11,2,10]pentaoxadiphosphacyclotetradecin-10-olate]		6					11.6	5.4	14.3	9.6
O=c1c2ncn([C@@H]3O[C@@H]4COP(=O)(O)O[C@H]5[C@@H](F)[C@H](n6cc7c8c(ncnc86)NCCC7)O[C@@H]5COP(=O)(O)O[C@@H]3[C@@H]4O)c2ncn1CCO [compound 54, Disodium (5R,7R,8R,12aR,14R,15R,15aR,16R)-15-fluoro-16-hydroxy-7-[1-(2-hydroxyethyl)-6-oxo-1,6-dihydro-9H-purin-9-yl]-2,10-dioxo-14-(6,7,8,9-tetrahydro-2H-2,3,5,6-tetraazabenzo[cd]azulen-2-yl)octahydro-2H,10H,12H-5,8-methano-2λ^5,10λ^5-furo[3,2-1][1,3,6,9,11,2,10]pentaoxadiphosphacyclotetradecine-2,10-bis(olate)]		4					9.8	3.4	12.1	8.3
